Experimental data from US20250214982A1, “COMPOUNDS USABLE AS MODULATORS OF PERK ACTIVITY” (Ramot at Tel-Aviv University Ltd., priority 2022, published 2025).
In brackets after ≈: the same amount, converted by molar mass.

Legend:
Solubility = type: physicochemical; conditions: for solubility compared to MK-28 (fold higher): relative to MK-28
Description: (§1) The solubility and lipophilicity of GLB7 and GLB11, two exemplary compounds according to some embodiments of the present invention, were measured compared to the PERK activator MK-28.

Lipophilicity (logD7.4) = type: physicochemical
Description: as §1

PERK = molecular target: T1, PERK (Homo sapiens, UniProt Q9NZJ5); test: PERK activation: eIF2α phosphorylation relative to total eIF2α in HEK293 cells (Western blot); type: cell-based; conditions: for increase in eIF2α phosphorylation relative to total eIF2α: 24 hours
T1 construct: endogenous in cells; host or cells: HEK293
T1 sequence (Q9NZJ5 30-1116): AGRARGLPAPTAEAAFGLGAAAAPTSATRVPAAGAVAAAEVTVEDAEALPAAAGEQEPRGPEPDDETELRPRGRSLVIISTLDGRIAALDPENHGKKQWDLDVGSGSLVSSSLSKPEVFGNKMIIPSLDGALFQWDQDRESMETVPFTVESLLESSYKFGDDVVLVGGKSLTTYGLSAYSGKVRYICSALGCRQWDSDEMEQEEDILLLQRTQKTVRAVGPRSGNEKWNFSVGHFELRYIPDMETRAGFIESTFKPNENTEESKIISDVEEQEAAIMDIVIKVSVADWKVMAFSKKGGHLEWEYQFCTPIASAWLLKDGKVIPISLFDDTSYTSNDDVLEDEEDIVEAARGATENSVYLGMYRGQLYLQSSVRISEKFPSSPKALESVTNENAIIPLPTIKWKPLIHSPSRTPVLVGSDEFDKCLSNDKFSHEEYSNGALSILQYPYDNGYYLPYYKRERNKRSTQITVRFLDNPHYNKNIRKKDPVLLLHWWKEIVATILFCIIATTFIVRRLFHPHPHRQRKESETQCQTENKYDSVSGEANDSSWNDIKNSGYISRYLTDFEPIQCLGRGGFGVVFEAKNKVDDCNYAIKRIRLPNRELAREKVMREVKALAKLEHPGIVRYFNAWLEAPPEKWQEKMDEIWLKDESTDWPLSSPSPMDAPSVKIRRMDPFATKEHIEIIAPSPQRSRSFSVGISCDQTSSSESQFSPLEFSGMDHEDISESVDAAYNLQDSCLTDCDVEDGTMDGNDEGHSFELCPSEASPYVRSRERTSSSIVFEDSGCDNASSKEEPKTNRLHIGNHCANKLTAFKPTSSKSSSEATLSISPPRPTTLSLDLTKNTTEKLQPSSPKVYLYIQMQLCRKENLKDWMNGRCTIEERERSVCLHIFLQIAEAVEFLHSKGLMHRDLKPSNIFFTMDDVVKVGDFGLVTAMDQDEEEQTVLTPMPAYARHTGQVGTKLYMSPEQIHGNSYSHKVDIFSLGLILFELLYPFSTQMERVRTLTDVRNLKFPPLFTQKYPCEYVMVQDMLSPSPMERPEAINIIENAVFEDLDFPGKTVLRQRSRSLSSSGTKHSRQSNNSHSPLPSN
Description: FIG. 3A presents comparative bar graphs showing the effect of treatment with MK-28 or GLB7 (5 μM, 10 μM or 20 μM, as indicated), on the levels of eIF2α-phosphorylation (eIF2α-P) relatively to total eIF2α (eIF2α) in lysed HEK293 cells. Treatment with MK-28 began 24 hours before lysis. Data was obtained from quantification of Western blots (FIG. 3B), and immunoblotting was performed with anti-eIF2α-P or anti-total eIF2α antibodies.
For this purpose, HEK293 cells were untreated or treated with 5, 10 or 20 μM GLB7 or MK-28. After 24 hours, the cells were lysed and the phosphorylated eIF2α levels were measured relatively to the total eIF2α (a substrate of PERK).

STHdhQ111/111 cells = test: ER stress (tunicamycin)-induced apoptosis in STHdhQ111/111 cells; type: cell-based, murine; conditions: 10 μM compound, tunicamycin 48 hours, read from FIG. 2
Description: FIG. 2 presents comparative plots showing the apoptosis rate of STHdh^Q111/111 cells as a function of concentration of the exemplary compounds GLB11 and GLC19, following incubation with tunicamycin for 48 hours), as described for FIG. 1. P values *<0.05, **<0.01, ***<0.001. The asterisks indicate the significance compared to untreated cells.
Cell culture and transfections: Mouse embryonic fibroblasts (MEF) cells were grown as described in the art. Murine striatal cell line expressing full-length polyQ-expanded Htt (STHdhQ111/111) cells were grown as described in Leitman et al. [PLOS One 2014, 9 (3): e90803]. HEK 293 and VERO cells were grown in DMEM supplemented with 10% bovine calf serum at 37° C. under 5% CO2.
Apoptosis: Apoptosis was measured by cell cycle progression using propidium iodide (PI), considering the fraction beneath G0/G1.
Statistical analysis: Generally, the results are expressed as mean±standard deviation of 3 independent experiments. Apoptosis in the presence of tunicamycin and in the absence of other compounds was normalized to 100 to allow comparison between experiments. Significance by Two-tailed Student's t-test.
In order to assess the effect of the exemplary compounds on apoptosis, similar assays were performed in mouse embryonic fibroblasts (MEF; FIG. 1) and in STHdhQ111/111 cells (FIG. 2).

| logD (Lipophilicity (logD7.4); pH 7.4) | Structure (SMILES) | solubility (Solubility) | solubility compared to MK-28 (fold higher) (Solubility) | lipophilicity compared to MK-28 (Lipophilicity (logD7.4); relative to MK-28) | increase in eIF2α phosphorylation relative to total eIF2α (PERK; 5 μM) | increase in eIF2α phosphorylation relative to total eIF2α (PERK; 10 μM) | increase in eIF2α phosphorylation relative to total eIF2α (PERK; 20 μM) | PERK activation compared to MK-28 (PERK; lowest examined dose of 5 μM) | reduction of apoptosis (STHdhQ111/111 cells) |
| --- | --- | --- | --- | --- | --- | --- | --- | --- | --- |
|  | Oc1ccc(C=NNc2nc(-c3ccccc3)cc(-c3ccccc3)n2)cc1O (racemic) [GLB7, 4-((2-(4,6-diphenylpyrimidin-2-yl)hydrazono)methyl)benzene-1,2-diol] | 16 µM (≈ 6.12 µg/mL) | > 10 fold | decreased | ~70% | 50% | 65% | higher levels of PERK activation |  |
| 4.8 | CN(NCc1ccc(O)c(O)c1)c1nc(-c2ccccc2)cc(-c2ccccc2)n1 [GLB11] | 6 µM (≈ 2.39 µg/mL) | > 4 fold |  |  |  |  |  | about 20% |
|  | CN(/N=C/c1ccc(C(F)(F)F)cc1)c1nc(-c2ccccc2)cc(-c2ccccc2)n1 [GLC19, (E)-2-(1-methyl-2-(4-(trifluoromethyl)benzylidene) hydrazinyl)-4,6-diphenyl pyrimidine] |  |  |  |  |  |  |  | about 20% |
